ChEMBL document CHEMBL5625201, “Discovery and structure-activity relationship studies of novel α-ketoamide derivatives targeting the SARS-CoV-2 main protease” (Eur J Med Chem, 2023)

Tests used:
[1] = Cytotoxicity against African green monkey Vero cells; type: toxicity, cell-based; settings: chlorocebus sabaeus
[2] = Cytotoxicity against human BEAS-2B cells; type: toxicity, cell-based
[3] = target: T1, Replicase polyprotein 1ab (Severe acute respiratory syndrome coronavirus 2, UniProt P0DTD1); test: Inhibition of SARS-CoV-2 main protease by FRET assay
SARS-CoV-2 [4] = test: Antiviral activity against SARS-CoV-2 infected in human HPAEpiC cells assessed as reduction in viral replication by RT-qPCR assay; type: functional, organism-based; settings: Severe acute respiratory syndrome coronavirus 2, HPAEpiC
SARS-CoV-2 [5] = test: Antiviral activity against SARS CoV-2 infected in African green monkey VeroE6/TMPRSS2 assessed as reduction in plaque formation measured after 2 days by crystal violet staining based assay; type: functional, organism-based; settings: Severe acute respiratory syndrome coronavirus 2, VeroE6/TMPRSS2, 48 h
[6] = target: T1, Replicase polyprotein 1ab; test: Inhibition of SARS-CoV-2 Main protease using MCA-AVLQSGFR-Lys(DNP)-Lys-NH2 as substrate preincubated for 10 mins followed by substrate addition by FRET assay
Cytochrome P450 2C9 = Cytochrome P450 2C9 (Homo sapiens, UniProt P11712); test: Inhibition of CYP2C9 (unknown origin); type: ADME
Sequence of Cytochrome P450 2C9 (P11712 whole entry): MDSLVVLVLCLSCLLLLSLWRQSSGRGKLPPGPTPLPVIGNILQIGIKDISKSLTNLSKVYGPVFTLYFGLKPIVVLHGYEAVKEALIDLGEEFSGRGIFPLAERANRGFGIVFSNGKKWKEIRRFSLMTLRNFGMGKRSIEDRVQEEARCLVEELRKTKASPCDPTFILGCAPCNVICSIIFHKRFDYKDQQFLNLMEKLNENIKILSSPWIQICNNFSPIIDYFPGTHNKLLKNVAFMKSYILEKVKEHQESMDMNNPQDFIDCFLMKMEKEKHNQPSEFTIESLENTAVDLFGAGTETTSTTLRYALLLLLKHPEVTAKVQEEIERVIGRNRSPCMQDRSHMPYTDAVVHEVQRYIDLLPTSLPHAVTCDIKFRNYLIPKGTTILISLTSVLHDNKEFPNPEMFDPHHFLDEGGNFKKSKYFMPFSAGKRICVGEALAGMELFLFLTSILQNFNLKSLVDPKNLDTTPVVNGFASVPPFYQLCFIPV

Cytochrome P450 3A4 = Cytochrome P450 3A4 (Homo sapiens, UniProt P08684); test: Inhibition of CYP3A4 (unknown origin); type: ADME
Sequence of Cytochrome P450 3A4 (P08684 whole entry): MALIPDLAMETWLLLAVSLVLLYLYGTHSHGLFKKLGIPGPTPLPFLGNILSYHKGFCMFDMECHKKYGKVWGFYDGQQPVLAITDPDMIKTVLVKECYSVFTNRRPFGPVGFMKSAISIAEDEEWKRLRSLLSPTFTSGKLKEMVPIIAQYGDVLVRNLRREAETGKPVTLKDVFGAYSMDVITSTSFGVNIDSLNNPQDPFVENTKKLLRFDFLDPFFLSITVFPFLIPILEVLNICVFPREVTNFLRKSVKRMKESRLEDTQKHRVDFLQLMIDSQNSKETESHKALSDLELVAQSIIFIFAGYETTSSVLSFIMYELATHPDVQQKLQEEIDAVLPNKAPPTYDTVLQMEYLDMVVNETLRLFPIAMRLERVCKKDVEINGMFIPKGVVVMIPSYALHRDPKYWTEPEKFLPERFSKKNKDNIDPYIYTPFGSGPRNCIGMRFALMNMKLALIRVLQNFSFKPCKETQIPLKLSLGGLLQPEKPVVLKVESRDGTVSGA

O=C(NCc1ccccn1)C(=O)[C@@H](Cc1ccccc1)NC(=O)[C@H]1COCCN1C(=O)CC1CCC(F)(F)CC1
CC50 [1]: > 100 µM
CC50 [2]: > 100 µM
IC50 [3]: 0.0109 µM
EC50 (SARS-CoV-2 [4]): 0.0664 µM

[2H][C@](C(=O)N[C@@H](C)c1ccc(F)cc1)(c1ccccc1)N(C(=O)C(C)=O)c1ccc2c(c1)oc1ccccc12
EC50 (SARS-CoV-2 [5]): 0.011 µM
IC50 [6]: 0.008 µM

O=C(NCc1ccccn1)C(=O)[C@@H](Cc1ccccc1)NC(=O)[C@H]1CC(F)(F)CN1C(=O)[C@@H]1C[C@@H]2[C@H](C1)C2(F)F
IC50 [3]: 0.0372 µM

C[C@@H](NC(=O)[C@@H]1C[C@@H]2[C@H](C1)C2(F)F)C(=O)N[C@H](Cc1ccccc1)C(=O)C(=O)NCc1ccccn1
CC50 [1]: > 100 µM
CC50 [2]: > 100 µM
EC50 (SARS-CoV-2 [4]): 0.0978 µM

O=C(CNC(=O)C1CCC(F)(F)CC1)N[C@H](Cc1ccc(Cl)c(Cl)c1)C(=O)C(=O)NCc1ccccn1
IC50 [3]: 0.0344 µM

O=C(CCCc1ccccc1)N[C@H](Cc1ccccc1)C(=O)C(=O)NCc1ccccn1
inhibition (INH) (Cytochrome P450 2C9): Active
inhibition (INH) (Cytochrome P450 3A4): Active
IC50 [3]: 0.0338 µM

O=C(NCc1ccccn1)C(=O)[C@@H](Cc1ccccc1)NC(=O)C1(NC(=O)C2CCC(F)(F)CC2)CC1
IC50 [3]: 0.0212 µM

O=C(Cc1ccccc1)N[C@H](Cc1ccccc1)C(=O)C(=O)NCc1ccccn1
IC50 [3]: 0.219 µM

O=C(CC1CCC(F)(F)CC1)NCC(=O)N[C@H](Cc1ccccc1)C(=O)C(=O)NCc1ccccn1
IC50 [3]: 0.015 µM

CC[C@@H](NC(=O)C1CCC(F)(F)CC1)C(=O)N[C@H](Cc1ccccc1)C(=O)C(=O)NCc1ccccn1
IC50 [3]: 0.0416 µM

O=C(NCc1ccccn1)C(=O)[C@@H](Cc1ccccc1)NC(=O)c1ccccc1
IC50 [3]: 0.208 µM

O=C(CNC(=O)C1CCC(F)(F)CC1)N[C@H](Cc1ccccc1)C(=O)C(=O)NCc1ccccn1
CC50 [1]: > 100 µM
CC50 [2]: > 100 µM
EC50 (SARS-CoV-2 [4]): 0.102 µM

O=C(NCc1ccccn1)C(=O)[C@@H](Cc1ccccc1)NC(=O)[C@H]1COCCN1C(=O)[C@@H]1C[C@@H]2[C@H](C1)C2(F)F
IC50 [3]: 0.0236 µM

N#Cc1cc(C(=O)NCC(=O)N[C@H](Cc2ccccc2)C(=O)C(=O)NCc2ccccn2)ccc1F
IC50 [3]: 0.168 µM

O=C(CNC(=O)c1ccc(Cl)c(F)c1)N[C@H](Cc1ccccc1)C(=O)C(=O)NCc1ccccn1
IC50 [3]: 0.0185 µM

O=C(CNC(=O)c1ccccc1)N[C@H](Cc1ccccc1)C(=O)C(=O)NCc1ccccn1
inhibition (INH) (Cytochrome P450 2C9): Active
inhibition (INH) (Cytochrome P450 3A4): Active
IC50 [3]: 0.141 µM

O=C(CNC(=O)[C@@H]1C[C@@H]2[C@H](C1)C2(F)F)N[C@H](Cc1ccccc1)C(=O)C(=O)NCc1ccccn1
IC50 [3]: 0.0179 µM

C[C@@H](NC(=O)C1CCC(F)(F)CC1)C(=O)N[C@H](Cc1ccccc1)C(=O)C(=O)NCc1ccccn1
CC50 [1]: > 100 µM
CC50 [2]: > 100 µM
EC50 (SARS-CoV-2 [4]): 0.0653 µM

O=C(NCc1ccccn1)C(=O)[C@@H](Cc1ccccc1)NC(=O)[C@H]1CC(F)(F)CN1C(=O)CC1CCC(F)(F)CC1
IC50 [3]: 0.035 µM

C[C@@H](NC(=O)CC1CCC(F)(F)CC1)C(=O)N[C@H](Cc1ccccc1)C(=O)C(=O)NCc1ccccn1
IC50 [3]: 0.0161 µM

CCC(CC)COC(=O)[C@H](C)N[P@](=O)(OC[C@H]1O[C@@](C#N)(c2ccc3c(N)ncnn23)[C@H](O)[C@@H]1O)Oc1ccccc1
EC50 (SARS-CoV-2 [4]): 0.364 µM

CC(C)(C)[C@H](NC(=O)C(F)(F)F)C(=O)N1C[C@H]2[C@@H]([C@H]1C(=O)N[C@H](C#N)C[C@@H]1CCNC1=O)C2(C)C
EC50 (SARS-CoV-2 [4]): 0.05 µM

O=C(COc1ccccc1)N[C@H](Cc1ccccc1)C(=O)C(=O)NCc1ccccn1
inhibition (INH) (Cytochrome P450 2C9): Active
inhibition (INH) (Cytochrome P450 3A4): Active
IC50 [3]: 0.0555 µM

CN(CC(=O)N[C@H](Cc1ccccc1)C(=O)C(=O)NCc1ccccn1)C(=O)C1CCC(F)(F)CC1
IC50 [3]: 0.0306 µM

O=C(CCc1ccccc1)N[C@H](Cc1ccccc1)C(=O)C(=O)NCc1ccccn1
inhibition (INH) (Cytochrome P450 2C9): Active
inhibition (INH) (Cytochrome P450 3A4): Active
IC50 [3]: 0.0867 µM

COC[C@@H](NC(=O)C1CCC(F)(F)CC1)C(=O)N[C@H](Cc1ccccc1)C(=O)C(=O)NCc1ccccn1
CC50 [1]: > 100 µM
CC50 [2]: > 100 µM
IC50 [3]: 0.017 µM
EC50 (SARS-CoV-2 [4]): 0.0595 µM
